Values of other authors, collected in patent US20210128584A1, “USE OF GLUCOCORTICOID RECEPTOR ANTAGONISTS FOR THE TREATMENT OF AMYOTROPHIC LATERAL SCLEROSIS” (Corcept Therapeutics Incorporated, priority 2008, published 2021).

fraction of the daily dose excreted in the urine: less than 0.5%
SMILES: CC#C[C@]1(O)CC[C@H]2[C@@H]3CCC4=CC(=O)CCC4=C3[C@@H](c3ccc(N(C)C)cc3)C[C@@]21C [Mifepristone, 17β-hydroxy-11β-(4-dimethyl-aminophenyl)-17α-(1-propynyl)-estra-4,9-dien-3-one]
